According to PubChem BioAssay (NCI):
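Values below derive from 48-hour exposures of cells grown in 96-well plates, with endpoints linearly interpolated between the two concentrations bracketing the appropriate inhibition level. TGI is the concentration that stops growth completely.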

Key:
Test in all cases: DTP human tumour cell line panel, 48 h
786-0 renal = test system: 786-0 renal
CAKI-1 renal = test system: CAKI-1 renal
HCC-2998 colon = test system: HCC-2998 colon
K-562 leukemia = test system: K-562 leukemia
MALME-3M melanoma = test system: MALME-3M melanoma
MDA-N = test system: MDA-N
NCI-H522 lung = test system: NCI-H522 lung
NCI/ADR-RES ovarian = test system: NCI/ADR-RES ovarian
OVCAR-5 ovarian = test system: OVCAR-5 ovarian
SNB-19 CNS = test system: SNB-19 CNS
U251 CNS = test system: U251 CNS
UO-31 renal = test system: UO-31 renal

| SMILES | TGI (786-0 renal) | TGI (CAKI-1 renal) | TGI (HCC-2998 colon) | TGI (K-562 leukemia) | TGI (MALME-3M melanoma) | TGI (MDA-N) | TGI (NCI-H522 lung) | TGI (NCI/ADR-RES ovarian) | TGI (OVCAR-5 ovarian) | TGI (SNB-19 CNS) | TGI (U251 CNS) | TGI (UO-31 renal) |
| --- | --- | --- | --- | --- | --- | --- | --- | --- | --- | --- | --- | --- |
| Cc1ccc(C(=O)OC[C@H]2CC[C@@H](n3cc(N(C)C4CCCCC4)c(=O)[nH]c3=O)O2)cc1 | > 100 µM | > 100 µM | > 100 µM | > 100 µM | 56.7 µM | 90.7 µM | 46.6 µM | 56.7 µM | 81 µM | 61.4 µM | 38.7 µM | 62.7 µM |
| COc1cc(-c2nc3cc(F)ccc3s2)ccc1O | > 100 µM | > 100 µM | 55.5 µM | > 100 µM | > 100 µM | > 100 µM | 78.4 µM | > 100 µM | > 100 µM | > 100 µM | > 100 µM | > 100 µM |
| CN1CC2=C(OC(N)=C(C#N)C2c2cccs2)/C(=C/c2cccs2)C1 (stereo unspecified) | > 69.9 µM | > 100 µM | > 100 µM | > 100 µM | 38.4 µM | > 47.3 µM | > 53 µM | 23.6 µM | > 100 µM | > 100 µM | > 100 µM | > 84.8 µM |
| COc1ccc(CCn2cnc3ccccc32)cc1 | > 100 µM | > 100 µM | > 100 µM | > 100 µM | > 100 µM | > 100 µM | > 100 µM | > 100 µM | > 100 µM | > 100 µM | > 100 µM | > 100 µM |
| CC(=O)Oc1ccc(/C=C/C(=O)O[C@@H](C)[C@H](C)OC(=O)/C=C/c2ccc(OC(C)=O)c(OC(C)=O)c2)cc1OC(C)=O | > 100 µM | > 100 µM | 50.4 µM | > 100 µM | 63.5 µM | 89.4 µM | 28.1 µM | > 100 µM | 58.8 µM | > 100 µM | > 100 µM | > 100 µM |
| Oc1ccc(/C=C\c2nnc(/C=C\c3ccc(O)c(O)c3)s2)cc1O | 38.6 µM | 16.8 µM | 23.9 µM | > 27.9 µM | 17.7 µM | 20.8 µM | 3.29 µM | > 59.2 µM | > 86.5 µM | 23.2 µM | 13.5 µM | 7.78 µM |
| COc1ccc2c(c1)OC(c1cccnc1)C(c1ccccc1)C2=O (stereo unspecified) | > 100 µM | > 100 µM | > 100 µM | > 100 µM | > 100 µM | > 100 µM | > 100 µM | > 100 µM | > 100 µM | > 100 µM | > 100 µM | > 100 µM |
| O=C(Nc1ccccc1)O/N=C(/CBr)c1ccccc1 | 26.6 µM | 31.7 µM | 36.6 µM | > 100 µM | 33.9 µM | 24.2 µM | 29.3 µM | > 100 µM | 36.1 µM | 53.9 µM | 30.5 µM | 32.4 µM |
| CC(C)/C(Cl)=N/OC(=O)Nc1ccc(F)c(Cl)c1 | 2.96 µM | 3.06 µM | 28.1 µM | > 100 µM | 4.08 µM | 14.8 µM | 3.01 µM | 29.3 µM | 34.6 µM | 45.8 µM | 40.3 µM | 30.4 µM |
| CCCCOC(=O)C(=O)C(CCC(=O)c1ccc(C)cc1)C(=O)C=C(C)C (stereo unspecified) | > 100 µM | > 100 µM | > 100 µM | > 100 µM | > 100 µM | > 100 µM | > 100 µM | > 100 µM | > 100 µM | > 100 µM | > 100 µM | > 100 µM |
| Cc1ccc(C(=O)N(C2CCCCC2)C2CCCCC2)cc1N=NN(C)C | 28.7 µM | 27.2 µM | 29.4 µM | 47.6 µM | 31 µM | 28.3 µM | 16.7 µM | 47.8 µM | 38.2 µM | 26.4 µM | 34.1 µM | 26 µM |
| Cc1ccc(S(=O)(=O)N/C(=C\C=C\c2ccccc2)C(=O)C(C)(C)C)cc1 | 73.6 µM | > 100 µM | > 100 µM | > 100 µM | > 100 µM | > 100 µM | > 100 µM | > 100 µM | > 100 µM | > 100 µM | > 100 µM | > 100 µM |
| CC(C)(CO)CNc1cc(=O)[nH]c(N)n1 | > 100 µM | > 100 µM | > 100 µM | > 100 µM | > 100 µM | > 100 µM | > 100 µM | > 100 µM | > 100 µM | > 100 µM | > 100 µM | > 100 µM |
